Results published in patent US11453904B2, “Evaluation method for permeability of porous membrane, cell evaluation method, and drug evaluation method” (FUJIFILM CORPORATION, priority 2019, dated 2022).

System: endothelial cells 301 and the smooth muscle cells 302
Assay: drug evaluation method: toxicity of a drug to cells cultured on the porous membrane of a microfluidic device, read by flow rate in the lower micro flow channel
Format: cell-based
Conditions: cytochalasin 50 μg/ml contained in liquid A and liquid B; concluded from the increased flow-rate slope (decreased barrier property)
From the text: The drug evaluation method according to the present embodiment includes culturing cells on the surface of the porous membrane 30 of the microfluidic device 110 (a step S41). […] This makes it possible to form a structure that simulates the blood vessel (the artery) in the microfluidic device 110. It is noted that the cells to be evaluated may be cultured only on one surface of the porous membrane 30.
The drug evaluation method according to the present embodiment includes exposing cells cultured on the surface of the porous membrane 30 to a drug to be evaluated (a step S42). That is, a liquid containing a drug to be evaluated is supplied to each of the upper micro flow channel 18 and the lower micro flow channel 24.
The drug evaluation method according to the present embodiment includes acquiring the evaluation indicator of the permeability of the porous membrane 30 according to any one of the first to third embodiments described above as an indicator of toxicity of the drug to be evaluated to the cells. That is, the change that occurs in the liquid accommodated in the lower micro flow channel 24 is acquired as an indicator of toxicity of the drug to be evaluated to the cells, in a case where the liquid is supplied to the upper micro flow channel 18 while the supply pressure is being changed (a step S43). […]

## cytochalasin
  toxicity to the endothelial cells 301 and the smooth muscle cells 302: has toxicity
